Results taken from publication PMC2771899, “Augmentation of Reverse Transcription by Integrase through an Interaction with Host Factor, SIP1/Gemin2 Is Critical for HIV-1 Infection” (PLoS ONE, 2009).

Assays:
MLV cDNA synthesis = type: cell-based, Moloney murine leukemia virus; conditions: PMA-stimulated THP-1 cells, 100 µM peptide, MMLV vector pFB-Luc; R/U5 24 h post-infection; compared with DMSO or control peptide
[1] = test system: IN-SIP1 interaction (His-IN, rSIP1); assay: Dot-blot inhibition of IN-SIP1 interaction by peptide; type: binding, HIV-1
rSIP1 = assay: Dot-blot binding of peptide to SIP1; conditions: 40 or 400 nmol peptide on nitrocellulose, rSIP1 (5 µg), anti-SIP1 antibody
[2] = target: T1, IN-SIP1 mediated RT activity (Homo sapiens, UniProt O14893); assay: In vitro RT assay, inhibition of IN-SIP1 mediated RT activity by peptide; type: biochemical, HIV-1
T1 construct: the SIP1 gene was amplified from pTRE-SIP1 (kindly provided by Dr. G. Dreyfuss) by PCR and cloned into BamHI and EcoRI sites of pGEX-6P-2; GST (N, cleaved yes); made in house; host or cells: E. coli BL21 (GST-SIP1), E. coli M15 (His-IN)
T1 sequence (O14893 1-280): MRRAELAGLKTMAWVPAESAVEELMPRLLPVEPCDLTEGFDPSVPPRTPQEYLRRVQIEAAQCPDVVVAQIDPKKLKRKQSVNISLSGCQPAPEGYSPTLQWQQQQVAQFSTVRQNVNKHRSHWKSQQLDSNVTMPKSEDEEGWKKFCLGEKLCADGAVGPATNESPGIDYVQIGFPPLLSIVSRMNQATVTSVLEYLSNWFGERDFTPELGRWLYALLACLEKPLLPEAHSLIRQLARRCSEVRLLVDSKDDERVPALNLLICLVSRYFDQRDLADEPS

[3] = test system: viral entry and RT enzymatic activity; assay: Direct effect on viral entry and RT enzymatic activity; design: species or system HIV-1; conditions: data not shown
HIV-1 cDNA synthesis = type: cell-based; conditions: PMA-stimulated THP-1 cells, 100 µM peptide 16 h before and 6 h during infection; R/U5 and R/gag, 24 h post-infection
[4] = test system: HIVNL43-luc/VSV-G pseudotypes; type: cell-based, HIV-1

Substance: IN60–80: synthetic peptide corresponding to the residues of 60–80 of HIV-1 IN (IWQLDCTHLEGKVILVAVHVA; Integrase; UniProt P04585 1207-1227, looked up, fragment)
- Effect on MLV cDNA synthesis (MLV cDNA synthesis): no significant inhibitory effect
- Peptide concentration that reduces His-WT binding to SIP1 to non-specific background levels ([1]; His-IN (10 µg) on nitrocellulose, 5 µg rSIP1): About 5 µM
- Interference with binding of full-length IN (His-WT) to SIP1 ([1]; His-IN (10 µg) on nitrocellulose, 5 µg rSIP1, peptide present): significantly interfered with the binding of the full-length IN (His-WT) to the SIP1 protein
- Inhibitory effect on His-WT binding to SIP1 relative to IN231–251 ([1]; IN60–80 versus IN231–251): more than 10 times
- Direct binding of peptide to rSIP1 (rSIP1): efficiently bound to rSIP1
- IC50, inhibition of IN-SIP1 mediated RT activity ([2]; 35 fmol RT, 3.5 fmol His-IN, 50 fmol rSIP1, 42°C, 30 min, 20 µl, real-time PCR): ~10 pmoles per reaction
- Effect on IN-SIP1 mediated RT activity ([2]; 35 fmol RT, 3.5 fmol His-IN, 50 fmol rSIP1, cDNA relative to control): significantly reduced the IN-SIP1 mediated RT activity in a dose-dependent manner
- Inhibitory effect on IN-SIP1 mediated RT activity relative to IN231–251 ([2]; IN60–80 versus IN231–251): more than 100 times
- Effect on IN-mediated RT stimulatory effect and HIV-1 replication ([2]; summary statement): specifically block IN-mediated RT stimulatory effect and HIV-1 replication
- Direct effect on viral entry and RT enzymatic activity [3]: does not directly suppress viral entry and RT enzymatic activity
- Viral cDNA synthesis, % of control (HIV-1 cDNA synthesis): less than 25 % of control
- HIV-1 infectivity, % of control [4]: 20–25 % of control
